{"source": "patent US10576085B2", "about": "“Substituted aminopurine compounds, compositions thereof, and methods of treatment therewith” (Signal Pharmaceuticals, LLC, priority 2016, dated 2020)", "type_in_all_cases": "cell-based", "key": {"[1]": {"tested_on": "TEAD reporter activity (YAP/TAZ responsive synthetic promoter)", "experiment": "TEAD reporter assay, 8×GTIIC-luciferase WI38 VA13 cells", "details": "Homo sapiens, WI-38 VA13; 24 hour assay; cumulative data of three experiments", "protocol": "TEAD reporter activity was analyzed using WI38 VA13 cells stably expressing a YAP/TAZ responsive synthetic promoter driving luciferase expression (8×GTIIC-luciferase). 10,000 cells per well were seeded on a white-walled 96-well plate and left overnight. After 16-20 hours, cells were treated with compound and TEAD reporter activity was measured 24 or 72 hours later using Bright Glo luciferase assay (Promega) according to the manufacturers instructions. This assay was performed 3 times for Compound 1 and twice for Trametinib."}, "[2]": {"tested_on": "WI38 VA13 cells expressing 8×GTIIC-luciferase", "experiment": "Viability assay (Cell Titer Fluor)", "details": "24 or 72 hours; across three assays", "protocol": "In parallel 10,000 WI38 VA13 cells expressing 8×GTIIC-luciferase were seeded in each well of a black-walled 96-well plate. After 16-20 hours cells were treated with compound for 24 or 72 hours. At this time the serum and compound containing media was removed and replaced with 100 μl serum free media and 100 μl Cell Titer Fluor (Promega). The plate was incubated for 2 hours at 37° C. before reading fluorescence output. This assay is based on measurement of live-cell protease activity. The viability assay was performed to confirm that any effects of compounds on TEAD reporter were not the result of compound effects on viability. This assay was performed 3 times for Compound 1 and twice for Trametinib."}, "AGS (gastric) cells": {"tested_on": "AGS (gastric) cells", "experiment": "Long term colony assay", "protocol": "(§1) Compound 1 was assessed for its ability to inhibit the colony formation of cancer cells via a long-term colony forming assay. Cells and compounds were added to 96-well plates and were monitored for up to 8 weeks for the formation of colonies. Compound and media were replenished every 1 week throughout the course of the assay. Colony formation was detected via imaging at 4× on the IncuCyte ZOOM System. […] (FIG. 23A-23D)."}, "HCT-116 (colo) cells": {"tested_on": "HCT-116 (colo) cells", "experiment": "Long term colony assay", "details": "up to 8 weeks", "protocol": "as §1"}, "Hep3B (HCC) cells": {"tested_on": "Hep3B (HCC) cells", "experiment": "Long term colony assay", "details": "up to 8 weeks", "protocol": "as §1"}, "SW48 (colo) cells": {"tested_on": "SW48 (colo) cells", "experiment": "Long term colony assay", "details": "up to 8 weeks", "protocol": "as §1"}}, "note": "pIC50: −log10 of the molar value."}
{"smiles": "C[C@]1(C(N)=O)CC[C@@H](n2c(Nc3c(Cl)cc(Cl)cc3Cl)nc3cnc(N[C@@H]4CCOC[C@H]4F)nc32)CC1", "note": "[Compound 1, cis-4-[2-{[(3S,4R)-3-fluorooxan-4-yl]amino}-8-(2,4,6-trichloroanilino)-9H-purin-9-yl]-1-methyl cyclohexane-1-carboxamide]", "values": [{"measurement": "pIC50", "setting": "[1]", "result": "< 5.00"}, {"measurement": "Viability", "setting": "[2]", "result": "not reproducibly affected"}, {"measurement": "Colony formation of AGS cells resistant to trametinib", "setting": "AGS (gastric) cells; AGS cells resistant to MEK inhibitor trametinib", "result": "inhibit colony formation"}, {"measurement": "Inhibition of colony formation vs MEK inhibitors (trametinib) and ERK inhibitors (GDC0994)", "setting": "AGS (gastric) cells; AGS, up to 8 weeks", "result": "greater levels of inhibition than seen with treatment with MEK inhibitors or ERK inhibitors"}, {"measurement": "Inhibition of colony formation vs MEK inhibitors (trametinib) and ERK inhibitors (GDC0994)", "setting": "HCT-116 (colo) cells", "result": "greater levels of inhibition than seen with treatment with MEK inhibitors or ERK inhibitors"}, {"measurement": "Inhibition of colony formation vs MEK inhibitors (trametinib) and ERK inhibitors (GDC0994)", "setting": "Hep3B (HCC) cells", "result": "greater levels of inhibition than seen with treatment with MEK inhibitors or ERK inhibitors"}, {"measurement": "Inhibition of colony formation vs MEK inhibitors (trametinib) and ERK inhibitors (GDC0994)", "setting": "SW48 (colo) cells", "result": "greater levels of inhibition than seen with treatment with MEK inhibitors or ERK inhibitors"}]}
